Measured values reported in paper PMC9866706 (Toxins, 2022).
Entries after “also recorded” stand apart in the source; their conditions may differ. Bridges are numbered along the chain shown (N, C = ends). Where no end group is shown, it is not given here.

Tests used:
TRPC1 = system: TRPC1; set-up: method as in doi.org/10.1016/j.toxicon.2006.09.030; conditions: ref doi.org/10.1016/j.toxicon.2006.09.030; cited from earlier work
KVAP = system: KVAP; set-up: method as in doi.org/10.1038/nature01473; conditions: ref doi.org/10.1038/nature01473; cited from earlier work
Nav1.7 = system: Nav1.7; set-up: method as in earlier work; conditions: ref doi.org/10.1016/j.cub.2014.01.013; doi.org/10.1016/j.toxicon.2006.09.014; cited from earlier work
Nav1.8 = system: Nav1.8; set-up: method as in earlier work; conditions: ref doi.org/10.1016/j.cub.2014.01.013; doi.org/10.1016/j.toxicon.2006.09.014; cited from earlier work
TRPA1 = system: TRPA1; set-up: method as in earlier work; conditions: ref doi.org/10.1016/j.cub.2014.01.013; doi.org/10.1016/j.toxicon.2006.09.014; cited from earlier work
Nav1.2 = system: Nav1.2; set-up: method as in earlier work; conditions: ref doi.org/10.1016/j.cub.2014.01.013; doi.org/10.1016/j.toxicon.2006.09.014; cited from earlier work
Nav1.5 = system: Nav1.5; set-up: method as in earlier work; conditions: ref doi.org/10.1016/j.cub.2014.01.013; doi.org/10.1016/j.toxicon.2006.09.014; cited from earlier work
rα3β4 nAChR = biological target: T1, rα3β4 nAChR (Rattus norvegicus, UniProt P04757+P12392); experiment: ACh-evoked currents in Xenopus oocytes (TEVC), rα3β4; assay type: cell-based
T1 construct: expressed in transfected cells; host or cells: Xenopus laevis oocytes injected with cRNA

rα6/α3β4 nAChR = biological target: T2, rα6/α3β4 nAChR (Rattus norvegicus, UniProt P04757+P12392+P43143); experiment: ACh-evoked currents in Xenopus oocytes (TEVC), rα6/α3β4; assay type: cell-based
T2 construct: expressed in transfected cells; host or cells: Xenopus laevis oocytes injected with cRNA

mα1β1δε nAChR = biological target: T3, mα1β1δε nAChR (Mus musculus, UniProt P02716+P04756+P09690+P20782); experiment: ACh-evoked currents in Xenopus oocytes (TEVC), mα1β1δε; assay type: cell-based
T3 construct: expressed in transfected cells; host or cells: Xenopus laevis oocytes injected with cRNA

rα4β2 nAChR = biological target: T4, rα4β2 nAChR (Rattus norvegicus, UniProt P09483+P12390); experiment: ACh-evoked currents in Xenopus oocytes (TEVC), rα4β2; assay type: cell-based
T4 construct: expressed in transfected cells; host or cells: Xenopus laevis oocytes injected with cRNA

rα2β2 nAChR = biological target: T5, rα2β2 nAChR (Rattus norvegicus, UniProt P12389+P12390); experiment: ACh-evoked currents in Xenopus oocytes (TEVC), rα2β2; assay type: cell-based
T5 construct: expressed in transfected cells; host or cells: Xenopus laevis oocytes injected with cRNA

rα7 nAChR = biological target: T6, rα7 nAChR (Rattus norvegicus, UniProt Q05941); experiment: ACh-evoked currents in Xenopus oocytes (TEVC), rα7; assay type: cell-based
T6 construct: expressed in transfected cells; host or cells: Xenopus laevis oocytes injected with cRNA

rα4β4 nAChR = biological target: T7, rα4β4 nAChR (Rattus norvegicus, UniProt P09483+P12392); experiment: ACh-evoked currents in Xenopus oocytes (TEVC), rα4β4; assay type: cell-based
T7 construct: expressed in transfected cells; host or cells: Xenopus laevis oocytes injected with cRNA

rα3β2 nAChR = biological target: T8, rα3β2 nAChR (Rattus norvegicus, UniProt P04757+P12390); experiment: ACh-evoked currents in Xenopus oocytes (TEVC), rα3β2; assay type: cell-based
T8 construct: expressed in transfected cells; host or cells: Xenopus laevis oocytes injected with cRNA

rα9α10 nAChR = biological target: T9, rα9α10 nAChR (Rattus norvegicus, UniProt P43144+Q9JLB5); experiment: ACh-evoked currents in Xenopus oocytes (TEVC), rα9α10; assay type: cell-based
T9 construct: expressed in transfected cells; host or cells: Xenopus laevis oocytes injected with cRNA

rα2β4 nAChR = biological target: T10, rα2β4 nAChR (Rattus norvegicus, UniProt P12389+P12392); experiment: ACh-evoked currents in Xenopus oocytes (TEVC), rα2β4; assay type: cell-based
T10 construct: expressed in transfected cells; host or cells: Xenopus laevis oocytes injected with cRNA

hα7 nAChR = biological target: T11, hα7 nAChR (Homo sapiens, UniProt P36544); experiment: ACh-evoked currents in Xenopus oocytes (TEVC), hα7; assay type: cell-based
T11 construct: expressed in transfected cells; host or cells: Xenopus laevis oocytes injected with cRNA

[1] = system: tetrodotoxin-resistant voltage-gated sodium channel; conditions: cited from earlier work
[2] = system: neuronal tetrodotoxin-sensitive voltage-gated sodium channel of adult rat dorsal root ganglion neurons; conditions: cited from earlier work

T9 sequence (Q9JLB5 25-447): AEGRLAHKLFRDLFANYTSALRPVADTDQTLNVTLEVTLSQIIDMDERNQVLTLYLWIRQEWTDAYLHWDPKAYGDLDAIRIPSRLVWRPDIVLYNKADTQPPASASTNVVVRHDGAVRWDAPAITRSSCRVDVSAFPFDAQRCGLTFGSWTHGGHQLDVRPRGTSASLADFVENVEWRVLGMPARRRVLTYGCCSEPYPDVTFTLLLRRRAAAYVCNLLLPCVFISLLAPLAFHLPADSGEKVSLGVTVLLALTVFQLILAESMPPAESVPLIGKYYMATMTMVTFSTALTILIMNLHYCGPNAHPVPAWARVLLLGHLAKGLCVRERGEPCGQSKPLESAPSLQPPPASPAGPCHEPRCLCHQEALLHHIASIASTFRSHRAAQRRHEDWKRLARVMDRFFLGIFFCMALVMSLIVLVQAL
T9 sequence (P43144 26-479): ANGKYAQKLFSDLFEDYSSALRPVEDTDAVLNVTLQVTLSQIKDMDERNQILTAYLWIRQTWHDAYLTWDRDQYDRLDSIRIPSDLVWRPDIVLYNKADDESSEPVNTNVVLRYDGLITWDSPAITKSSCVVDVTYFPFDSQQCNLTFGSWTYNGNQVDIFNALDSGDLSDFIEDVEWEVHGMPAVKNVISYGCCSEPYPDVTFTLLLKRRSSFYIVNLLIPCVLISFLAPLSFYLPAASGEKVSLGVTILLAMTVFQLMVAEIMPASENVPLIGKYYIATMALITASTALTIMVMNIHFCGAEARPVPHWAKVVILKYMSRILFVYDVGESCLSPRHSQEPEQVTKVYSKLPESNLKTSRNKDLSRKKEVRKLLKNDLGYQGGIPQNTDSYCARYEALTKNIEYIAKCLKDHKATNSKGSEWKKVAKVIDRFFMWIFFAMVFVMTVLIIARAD
T6 sequence (Q05941 23-502): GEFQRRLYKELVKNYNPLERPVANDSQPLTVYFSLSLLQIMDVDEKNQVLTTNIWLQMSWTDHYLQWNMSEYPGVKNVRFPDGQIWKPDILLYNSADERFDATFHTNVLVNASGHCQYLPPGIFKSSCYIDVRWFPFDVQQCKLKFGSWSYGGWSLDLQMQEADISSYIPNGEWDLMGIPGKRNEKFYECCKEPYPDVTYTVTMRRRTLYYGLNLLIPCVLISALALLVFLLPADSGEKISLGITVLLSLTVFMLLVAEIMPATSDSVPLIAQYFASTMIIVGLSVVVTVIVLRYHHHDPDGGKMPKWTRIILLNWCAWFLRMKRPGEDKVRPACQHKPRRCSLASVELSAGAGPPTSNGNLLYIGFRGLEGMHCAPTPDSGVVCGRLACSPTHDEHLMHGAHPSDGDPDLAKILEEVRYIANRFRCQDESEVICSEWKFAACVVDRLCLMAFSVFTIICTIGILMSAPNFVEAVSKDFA
T3 sequence (P20782 21-493): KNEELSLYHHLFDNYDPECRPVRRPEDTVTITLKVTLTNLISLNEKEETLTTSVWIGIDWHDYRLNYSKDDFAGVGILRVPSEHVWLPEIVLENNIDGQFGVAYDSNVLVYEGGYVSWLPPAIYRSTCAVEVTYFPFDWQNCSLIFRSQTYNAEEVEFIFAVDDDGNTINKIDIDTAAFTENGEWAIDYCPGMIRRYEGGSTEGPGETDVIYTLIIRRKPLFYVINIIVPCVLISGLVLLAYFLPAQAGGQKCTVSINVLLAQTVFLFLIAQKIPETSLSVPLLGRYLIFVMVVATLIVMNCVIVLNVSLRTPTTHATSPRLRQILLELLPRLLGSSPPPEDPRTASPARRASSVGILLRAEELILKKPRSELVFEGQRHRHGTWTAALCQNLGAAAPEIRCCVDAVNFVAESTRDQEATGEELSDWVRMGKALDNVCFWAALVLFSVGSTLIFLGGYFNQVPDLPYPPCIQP
T3 sequence (P04756 21-457): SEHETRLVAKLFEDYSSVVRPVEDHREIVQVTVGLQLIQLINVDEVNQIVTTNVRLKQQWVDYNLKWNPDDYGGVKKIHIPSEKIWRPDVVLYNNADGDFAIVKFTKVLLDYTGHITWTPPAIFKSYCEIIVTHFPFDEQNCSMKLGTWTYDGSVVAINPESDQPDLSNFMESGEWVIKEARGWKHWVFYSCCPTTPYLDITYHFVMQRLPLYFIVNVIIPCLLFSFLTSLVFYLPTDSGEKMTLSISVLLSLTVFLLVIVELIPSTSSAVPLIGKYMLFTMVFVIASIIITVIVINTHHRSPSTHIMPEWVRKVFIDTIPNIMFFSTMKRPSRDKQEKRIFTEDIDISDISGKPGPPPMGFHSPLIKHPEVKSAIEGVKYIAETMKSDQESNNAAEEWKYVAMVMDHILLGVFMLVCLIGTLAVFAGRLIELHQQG
T3 sequence (P09690 24-501): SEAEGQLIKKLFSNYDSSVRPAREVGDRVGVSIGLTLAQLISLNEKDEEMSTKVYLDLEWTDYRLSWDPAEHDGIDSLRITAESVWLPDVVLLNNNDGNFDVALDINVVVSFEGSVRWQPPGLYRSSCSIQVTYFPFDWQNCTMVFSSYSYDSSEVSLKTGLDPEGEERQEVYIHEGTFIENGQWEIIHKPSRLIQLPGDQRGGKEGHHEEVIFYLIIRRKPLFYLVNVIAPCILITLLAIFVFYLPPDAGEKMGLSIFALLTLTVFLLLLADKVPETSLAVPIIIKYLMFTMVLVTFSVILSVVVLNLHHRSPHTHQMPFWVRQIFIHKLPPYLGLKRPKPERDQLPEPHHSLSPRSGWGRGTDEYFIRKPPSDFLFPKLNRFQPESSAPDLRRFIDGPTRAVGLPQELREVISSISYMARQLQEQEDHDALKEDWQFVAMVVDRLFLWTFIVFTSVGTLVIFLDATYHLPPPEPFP
T3 sequence (P02716 25-520): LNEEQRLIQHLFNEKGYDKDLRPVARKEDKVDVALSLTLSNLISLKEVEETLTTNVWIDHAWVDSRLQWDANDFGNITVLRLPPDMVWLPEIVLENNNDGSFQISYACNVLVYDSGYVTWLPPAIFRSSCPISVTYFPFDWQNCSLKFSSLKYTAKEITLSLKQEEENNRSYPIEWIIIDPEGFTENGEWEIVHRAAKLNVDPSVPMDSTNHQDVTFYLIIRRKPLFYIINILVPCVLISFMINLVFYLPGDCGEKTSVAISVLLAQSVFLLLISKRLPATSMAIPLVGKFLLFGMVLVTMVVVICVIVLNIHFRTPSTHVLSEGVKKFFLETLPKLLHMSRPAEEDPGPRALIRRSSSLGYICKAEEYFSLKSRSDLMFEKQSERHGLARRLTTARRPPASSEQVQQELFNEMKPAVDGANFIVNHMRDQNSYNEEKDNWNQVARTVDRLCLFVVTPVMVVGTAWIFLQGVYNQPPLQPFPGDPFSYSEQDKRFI
T11 sequence (P36544 23-502): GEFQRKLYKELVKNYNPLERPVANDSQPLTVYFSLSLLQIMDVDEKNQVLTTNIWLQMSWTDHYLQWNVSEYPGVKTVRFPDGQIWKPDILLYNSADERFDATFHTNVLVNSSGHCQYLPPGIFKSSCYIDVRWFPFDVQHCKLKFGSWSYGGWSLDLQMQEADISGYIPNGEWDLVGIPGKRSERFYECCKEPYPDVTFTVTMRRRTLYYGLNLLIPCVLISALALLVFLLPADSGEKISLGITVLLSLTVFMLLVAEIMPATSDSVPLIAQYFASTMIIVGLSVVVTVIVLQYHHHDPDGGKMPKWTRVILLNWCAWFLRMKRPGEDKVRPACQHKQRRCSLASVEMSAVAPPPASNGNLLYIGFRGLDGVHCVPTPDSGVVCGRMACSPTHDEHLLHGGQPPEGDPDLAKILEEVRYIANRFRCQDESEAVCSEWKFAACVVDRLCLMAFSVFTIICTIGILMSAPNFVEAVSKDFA
T1 sequence (P04757 26-499): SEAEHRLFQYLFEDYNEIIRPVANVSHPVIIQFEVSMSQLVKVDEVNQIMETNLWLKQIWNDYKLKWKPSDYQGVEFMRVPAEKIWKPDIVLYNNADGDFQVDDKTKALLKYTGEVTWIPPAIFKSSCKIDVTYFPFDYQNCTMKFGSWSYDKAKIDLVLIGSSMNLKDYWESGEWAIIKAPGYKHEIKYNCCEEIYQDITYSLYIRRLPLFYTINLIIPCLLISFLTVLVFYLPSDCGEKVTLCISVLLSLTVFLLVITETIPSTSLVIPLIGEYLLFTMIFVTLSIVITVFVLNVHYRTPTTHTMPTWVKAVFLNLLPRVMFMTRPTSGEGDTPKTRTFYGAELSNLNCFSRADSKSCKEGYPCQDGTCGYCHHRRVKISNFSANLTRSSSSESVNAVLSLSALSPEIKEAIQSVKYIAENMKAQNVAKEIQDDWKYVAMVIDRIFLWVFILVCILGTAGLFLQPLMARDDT
T1 sequence (P12392 21-495): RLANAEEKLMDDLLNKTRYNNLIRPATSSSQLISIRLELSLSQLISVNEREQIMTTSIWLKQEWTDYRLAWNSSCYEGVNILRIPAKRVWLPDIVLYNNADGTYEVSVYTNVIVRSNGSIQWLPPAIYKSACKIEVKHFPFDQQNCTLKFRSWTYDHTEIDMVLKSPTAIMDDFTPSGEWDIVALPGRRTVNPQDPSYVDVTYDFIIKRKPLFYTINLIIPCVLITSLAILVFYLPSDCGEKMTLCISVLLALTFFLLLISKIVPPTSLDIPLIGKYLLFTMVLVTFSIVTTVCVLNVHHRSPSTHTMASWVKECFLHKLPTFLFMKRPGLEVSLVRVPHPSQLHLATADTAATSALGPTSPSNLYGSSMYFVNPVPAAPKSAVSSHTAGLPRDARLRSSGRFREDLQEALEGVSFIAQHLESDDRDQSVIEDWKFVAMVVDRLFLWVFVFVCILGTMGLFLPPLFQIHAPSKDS

## GsMTx-4
TRPC1
  Target (that was in the corresponding Ref.): TRPC1

## VSTx1: Grammostola rosea toxin, PDB 2N1N (ECGKFMWKCKNSNDCCKDLVCSSRWKWCVLASPF; UniProt P60980 30-63, looked up)
KVAP
  Target (that was in the corresponding Ref.): KVAP

## ProTx-I
Nav1.7
  Target (that was in the corresponding Ref.): Nav1.7
Nav1.8
  Target (that was in the corresponding Ref.): Nav1.8
TRPA1
  IC50: 389 ± 77 nM
Nav1.2
  Target (that was in the corresponding Ref.): Nav1.2
Nav1.5
  Target (that was in the corresponding Ref.): Nav1.5

## GCKKLNSYCTRQHRECCHGLVCRRPDYGIGRGILWKCTRARK (disulfide 2-17, 9-22, 16-37) [Ms11a-3]
rα3β4 nAChR
  IC50: 5.17 µM
rα3β4 nAChR; mean (95% confidence interval)
  Hill Slope: 0.84 (0.67–1.00)
rα6/α3β4 nAChR
  IC50: > 10 µM
mα1β1δε nAChR
  IC50: 1210 nM
mα1β1δε nAChR; mean (95% confidence interval)
  Hill Slope: 1.35 (0.71–1.99)
rα4β2 nAChR
  IC50: > 10 µM
rα2β2 nAChR
  IC50: > 10 µM
rα7 nAChR
  IC50: 4.79 µM
rα7 nAChR; mean (95% confidence interval)
  Hill Slope: 0.99 (0.59–1.40)
rα7 nAChR; towards α7 and heteromeric nAChRs
  functional potency: lowest potency
rα4β4 nAChR
  IC50: > 10 µM
rα3β2 nAChR
  IC50: > 10 µM
rα9α10 nAChR
  IC50: 202 nM
rα9α10 nAChR; compared to the muscle and α7 receptors
  functional antagonism: highest antagonism; also recorded: effectively blocking the neuronal α9α10 and to a lesser extent muscle nAChR subtypes
rα9α10 nAChR; mean (95% confidence interval)
  Hill Slope: 0.71 (0.52–0.90)
rα2β4 nAChR
  IC50: > 10 µM
hα7 nAChR
  IC50: 8.87 µM
hα7 nAChR; mean (95% confidence interval)
  Hill Slope: 0.95 (0.30–1.61)

## HWTX-IV: Haplopelma schmidti toxin, PDB 1MB6
[1]
  No (or weak) effect: No (or weak) effect
[2]
  IC50: 30 nM
